The supplement of paper PMC5908809

Assays:
[1] = tested on: normal NK cells expanded with K562-aAPC; experiment: percent inhibition of viability; higher = more inhibition; conditions: 72 h, IL-2 2.5 ng/mL
Description: (§1)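 Drug sensitivity and resistance testing on K562-aAPC-expanded normal NK cells: 5 concentrations (10-fold steps over a 10,000-fold range), 72 h at 37 °C, viability by CellTiter-Glo normalised to DMSO and benzethonium chloride controls; DSS from the fitted curve.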

DERL-7 (IL-2 2.5 ng/mL) [2] = experiment: as above; conditions: 72 h
IMC-1 (IL-2 20 ng/mL) [3] = experiment: as above; conditions: 72 h
KAI3 (IL-2 2.5 ng/mL) [4] = experiment: as above; conditions: 72 h
KHYG-1 (IL-2 2.5 ng/mL) [5] = experiment: as above; conditions: 72 h
NK-92 (IL-2 2.5 ng/mL) [6] = experiment: as above; conditions: 72 h
NK-YS (IL-2 2.5 ng/mL) [7] = experiment: as above; conditions: 72 h
NKL (IL-2 2.5 ng/mL) [8] = experiment: as above; conditions: 72 h
SNK-6 (IL-2 2.5 ng/mL) [9] = experiment: as above; conditions: 72 h
YT (IL-2 2.5 ng/mL) [10] = experiment: as above; conditions: 72 h
[11] = tested on: normal primary NK cells, pool 1 (3 donors) (IL-2 2.5 ng/mL); experiment: as above; conditions: 72 h
[12] = tested on: normal primary NK cells, pool 1 (3 donors), resting (IL-2 0 ng/mL); experiment: as above; conditions: 72 h
[13] = tested on: normal primary NK cells, pool 2 (3 donors) (IL-2 2.5 ng/mL); experiment: as above; conditions: 72 h
[14] = tested on: normal primary NK cells, pool 3 (3 donors) (IL-2 2.5 ng/mL); experiment: as above; conditions: 72 h
[15] = tested on: normal NK cells expanded with K562-aAPC; experiment: drug sensitivity score (DSS) (DSS units); higher = more sensitive; extreme values may be limits of the assay; conditions: 72 h; IL-2 2.5 ng/mL
Description: as §1

DERL-7 (IL-2 2.5 ng/mL) [16] = experiment: as above; conditions: 72 h
IMC-1 (IL-2 20 ng/mL) [17] = experiment: as above; conditions: 72 h
KAI3 (IL-2 2.5 ng/mL) [18] = experiment: as above; conditions: 72 h
KHYG-1 (IL-2 2.5 ng/mL) [19] = experiment: as above; conditions: 72 h
NK-92 (IL-2 2.5 ng/mL) [20] = experiment: as above; conditions: 72 h
NK-YS (IL-2 2.5 ng/mL) [21] = experiment: as above; conditions: 72 h
NKL (IL-2 2.5 ng/mL) [22] = experiment: as above; conditions: 72 h
SNK-6 (IL-2 2.5 ng/mL) [23] = experiment: as above; conditions: 72 h
YT (IL-2 2.5 ng/mL) [24] = experiment: as above; conditions: 72 h
[25] = tested on: normal primary NK cells, pool 1 (3 donors) (IL-2 2.5 ng/mL); experiment: as above; conditions: 72 h
[26] = tested on: normal primary NK cells, pool 1 (3 donors), resting (IL-2 0 ng/mL); experiment: as above; conditions: 72 h
[27] = tested on: normal primary NK cells, pool 2 (3 donors) (IL-2 2.5 ng/mL); experiment: as above; conditions: 72 h
[28] = tested on: normal primary NK cells, pool 3 (3 donors) (IL-2 2.5 ng/mL); experiment: as above; conditions: 72 h

C[C@]1(c2nc3c(C(N)=O)cccc3[nH]2)CCCN1 [Veliparib] (max concentration tested 10000 nM)
percent inhibition of viability [%]
Conditions	1 nM	10 nM	100 nM	1000 nM	10000 nM
DERL-7 (IL-2 2.5 ng/mL) [2]	1.66	5.22	0.09	-2.95	25.1
IMC-1 (IL-2 20 ng/mL) [3]	1	0.9	0.37	0.91	1.79
KAI3 (IL-2 2.5 ng/mL) [4]	1.98	-0.92	-2.55	12.1	34.3
KHYG-1 (IL-2 2.5 ng/mL) [5]	-11.7	-8.12	-8.94	-3.41	12
NK-92 (IL-2 2.5 ng/mL) [6]	7.45	4.92	2.84	-4.04	22.9
NK-YS (IL-2 2.5 ng/mL) [7]	-6.78	-8.37	-8.01	-6.17	14.8
NKL (IL-2 2.5 ng/mL) [8]	-2.87	-3.94	-5.59	4.18	38.6
SNK-6 (IL-2 2.5 ng/mL) [9]	3.66	1.93	-13.1	-1.7	13.8
YT (IL-2 2.5 ng/mL) [10]	1.3	-1.34	0.84	-0.22	3.43
[1]	3.32	0.6	3.03	3.27	19.4
[11]	-7.43	1.5	2.84	7.25	50.4
[12]	-8.38	-4.44	2.95	-4.91	56.4
[13]	-7.51	-2.4	-4.92	-8.11	16.4
[14]	-3.03	-1.96	-0.62	-3.1	15.2

Conditions	drug sensitivity score
DERL-7 (IL-2 2.5 ng/mL) [16]	0.78
IMC-1 (IL-2 20 ng/mL) [17]	0
KAI3 (IL-2 2.5 ng/mL) [18]	3.29
KHYG-1 (IL-2 2.5 ng/mL) [19]	0.01
NK-92 (IL-2 2.5 ng/mL) [20]	0.6
NK-YS (IL-2 2.5 ng/mL) [21]	0.1
NKL (IL-2 2.5 ng/mL) [22]	2.57
SNK-6 (IL-2 2.5 ng/mL) [23]	0.1
YT (IL-2 2.5 ng/mL) [24]	0
[15]	0.98
[25]	3.89
[26]	2.67
[27]	0.16
[28]	0.16

CC[C@H](Nc1ncnc2[nH]cnc12)c1nc2cccc(F)c2c(=O)n1-c1ccccc1 [Idelalisib] (max concentration tested 10000 nM)
percent inhibition of viability [%]
Conditions	1 nM	10 nM	100 nM	1000 nM	10000 nM
DERL-7 (IL-2 2.5 ng/mL) [2]	0.81	7.45	12.8	35.1	66.8
IMC-1 (IL-2 20 ng/mL) [3]	-6.02	-6.45	-0.47	-2.08	11.1
KAI3 (IL-2 2.5 ng/mL) [4]	-6.15	4.84	14.3	12.3	24.5
KHYG-1 (IL-2 2.5 ng/mL) [5]	-5.24	5.27	6.69	5.88	20.5
NK-92 (IL-2 2.5 ng/mL) [6]	7.56	15.2	42.3	40.1	54.5
NK-YS (IL-2 2.5 ng/mL) [7]	-9.88	-3.78	3.49	-1.8	18
NKL (IL-2 2.5 ng/mL) [8]	-12.5	-5.82	11	18.2	37
SNK-6 (IL-2 2.5 ng/mL) [9]	-11.8	-5.04	17.2	23.9	57.8
YT (IL-2 2.5 ng/mL) [10]	1.69	6.88	13.7	12.4	27.4
[1]	-1.29	-3.37	3.42	14.1	38.7
[11]	-2.62	10.2	9.54	5.66	28.7
[12]	1.24	15.1	10.3	1.19	46.2
[13]	-10.8	-5.29	14.8	13.4	35.6
[14]	-3.21	-0.12	6.64	10.3	26.2

Conditions	drug sensitivity score
DERL-7 (IL-2 2.5 ng/mL) [16]	8.42
IMC-1 (IL-2 20 ng/mL) [17]	0
KAI3 (IL-2 2.5 ng/mL) [18]	2.76
KHYG-1 (IL-2 2.5 ng/mL) [19]	0.8
NK-92 (IL-2 2.5 ng/mL) [20]	14.8
NK-YS (IL-2 2.5 ng/mL) [21]	0.36
NKL (IL-2 2.5 ng/mL) [22]	3.92
SNK-6 (IL-2 2.5 ng/mL) [23]	6.33
YT (IL-2 2.5 ng/mL) [24]	3
[15]	3.47
[25]	1.85
[26]	2.55
[27]	3.36
[28]	1.78
